Reference: ChEMBL document CHEMBL1201862, “PubChem BioAssay data set” (2004)
Calls of active or inactive are those of the source.

How the values were obtained:
[1] = target: Polyadenylate-binding protein 1 (Homo sapiens, UniProt P11940); experiment: PABP inhibition in translation initiation, SAR follow-up (AID 435018); assay type: functional
[2] = target: Eukaryotic translation initiation factor 4H (Homo sapiens, UniProt Q15056); experiment: inhibitors of translation initiation factor eIF4H – SAR follow-up (AID 435011); assay type: functional
INS1 = experiment: INS-1E survival protection against cytokine death – cell-based, luminescence, retest, dose response (AID 449756); assay type: functional; conditions: Rattus norvegicus;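 further: cell death triggered by IL-1 beta plus TNF-alpha plus IFN-gamma mixture; protective hits raise ATP signal compared with cytokine alone wells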
[3] = target: Envelope glycoprotein gp160 (Human immunodeficiency virus 1, UniProt Q6QLK5); experiment: cell-free HIV fusion peptide-binding blockers – biochemical, uHTS, fluorescence dequenching, […] (AID 1986)
Chain of Envelope glycoprotein gp160 (Q6QLK5 whole entry, the tested form may be a part): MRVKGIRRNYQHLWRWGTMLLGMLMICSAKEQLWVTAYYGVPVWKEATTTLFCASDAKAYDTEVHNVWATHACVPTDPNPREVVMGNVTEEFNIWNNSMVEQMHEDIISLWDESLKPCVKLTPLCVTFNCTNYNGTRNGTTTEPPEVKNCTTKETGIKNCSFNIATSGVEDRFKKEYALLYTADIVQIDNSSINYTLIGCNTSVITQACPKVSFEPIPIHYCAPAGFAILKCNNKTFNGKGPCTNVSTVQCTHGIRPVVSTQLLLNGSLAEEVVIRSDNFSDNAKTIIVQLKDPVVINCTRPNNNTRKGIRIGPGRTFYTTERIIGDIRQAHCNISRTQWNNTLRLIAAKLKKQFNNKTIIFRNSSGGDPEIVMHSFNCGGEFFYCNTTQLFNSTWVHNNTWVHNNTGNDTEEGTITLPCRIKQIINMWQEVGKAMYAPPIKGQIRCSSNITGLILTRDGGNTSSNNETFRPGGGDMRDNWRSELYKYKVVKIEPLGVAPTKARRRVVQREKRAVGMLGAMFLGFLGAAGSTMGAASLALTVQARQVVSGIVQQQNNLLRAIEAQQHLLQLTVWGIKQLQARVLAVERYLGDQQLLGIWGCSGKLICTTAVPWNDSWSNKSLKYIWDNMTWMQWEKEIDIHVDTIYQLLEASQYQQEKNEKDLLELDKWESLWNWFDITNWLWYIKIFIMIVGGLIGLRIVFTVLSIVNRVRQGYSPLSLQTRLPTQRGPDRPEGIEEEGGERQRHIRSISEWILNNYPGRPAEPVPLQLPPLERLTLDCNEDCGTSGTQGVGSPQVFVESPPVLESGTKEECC

[4] = M. tuberculosis H37Rv growth inhibitors, H37Rv strain (AID 1626); assay type: functional
[5] = Luminescence Cell-Based Dose Retest to Confirm Inhibitors of Cancer Stem Cells. [Related pubchem assays (depositor defined):AID2717, AID2721]; assay type: functional; conditions: Homo sapiens
Paired box protein Pax-8 = Paired box protein Pax-8 (Homo sapiens, UniProt Q06710); experiment: PAX8 transcriptional activity inhibition in RMG-I – RMG-I cells, luciferase, cherry-pick, dose response (AID 687027); assay type: functional, cell-based;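 further: luciferase reporter driven by Pax8 target thyroperoxidase promoter measured by SteadyGlo luminescence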
[6] = target: Cystic fibrosis transmembrane conductance regulator/Golgi-associated PDZ and coiled-coil motif-containing protein (Homo sapiens, UniProt P13569+Q9HD26); experiment: potency against CAL PDZ-peptide interaction – biochemical, fluorescence polarization, Cerulean-tagged CAL PDZ, cherry-picks, dose response (AID 504773)
Chain of Cystic fibrosis transmembrane conductance regulator/Golgi-associated PDZ and coiled-coil motif-containing protein (P13569 whole entry, other chains not shown): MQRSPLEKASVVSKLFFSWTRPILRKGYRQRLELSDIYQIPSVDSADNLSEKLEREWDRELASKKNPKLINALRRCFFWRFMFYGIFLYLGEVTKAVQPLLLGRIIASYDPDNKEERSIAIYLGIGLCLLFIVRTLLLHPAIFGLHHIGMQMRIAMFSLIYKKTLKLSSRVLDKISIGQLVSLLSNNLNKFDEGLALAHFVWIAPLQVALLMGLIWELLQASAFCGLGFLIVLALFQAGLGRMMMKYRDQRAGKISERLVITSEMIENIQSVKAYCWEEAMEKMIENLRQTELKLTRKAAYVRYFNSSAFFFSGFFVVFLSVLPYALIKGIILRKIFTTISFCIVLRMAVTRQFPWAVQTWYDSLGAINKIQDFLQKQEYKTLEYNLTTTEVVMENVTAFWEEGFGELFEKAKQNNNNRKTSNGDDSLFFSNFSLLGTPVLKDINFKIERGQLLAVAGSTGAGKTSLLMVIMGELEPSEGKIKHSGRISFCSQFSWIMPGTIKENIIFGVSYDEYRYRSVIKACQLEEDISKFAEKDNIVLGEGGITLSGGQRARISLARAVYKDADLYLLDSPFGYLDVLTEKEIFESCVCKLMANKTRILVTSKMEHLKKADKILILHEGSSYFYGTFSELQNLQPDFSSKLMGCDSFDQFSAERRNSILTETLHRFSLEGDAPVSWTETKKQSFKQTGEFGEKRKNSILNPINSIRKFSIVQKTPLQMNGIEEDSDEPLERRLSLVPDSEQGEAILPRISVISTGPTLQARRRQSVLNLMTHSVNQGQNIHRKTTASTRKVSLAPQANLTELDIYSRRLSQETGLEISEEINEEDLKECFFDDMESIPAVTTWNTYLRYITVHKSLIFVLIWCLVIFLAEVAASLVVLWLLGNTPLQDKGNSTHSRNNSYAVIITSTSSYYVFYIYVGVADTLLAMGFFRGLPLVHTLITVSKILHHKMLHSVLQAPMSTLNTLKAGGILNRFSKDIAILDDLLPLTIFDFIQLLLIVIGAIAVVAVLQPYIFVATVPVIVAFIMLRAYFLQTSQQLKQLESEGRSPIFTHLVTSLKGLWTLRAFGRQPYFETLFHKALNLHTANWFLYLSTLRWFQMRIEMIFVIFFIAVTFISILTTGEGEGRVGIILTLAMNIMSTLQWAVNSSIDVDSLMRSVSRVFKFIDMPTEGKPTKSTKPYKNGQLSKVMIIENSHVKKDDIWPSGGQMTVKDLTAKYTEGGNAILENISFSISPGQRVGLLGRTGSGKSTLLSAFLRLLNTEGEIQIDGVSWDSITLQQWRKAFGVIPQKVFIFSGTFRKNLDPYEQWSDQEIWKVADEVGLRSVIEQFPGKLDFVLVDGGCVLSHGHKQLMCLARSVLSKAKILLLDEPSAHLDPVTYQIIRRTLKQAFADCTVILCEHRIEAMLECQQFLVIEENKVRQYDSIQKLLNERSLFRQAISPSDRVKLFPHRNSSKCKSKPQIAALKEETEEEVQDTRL

Insulin-degrading enzyme [7] = target: T1, Insulin-degrading enzyme (Homo sapiens, UniProt P14735); experiment: cellular IDE activation of Abeta substrate cleavage – fluorescence polarization, HEK cells, dose response (AID 588439); assay type: functional, cell-based
T1 sequence (P14735 whole entry): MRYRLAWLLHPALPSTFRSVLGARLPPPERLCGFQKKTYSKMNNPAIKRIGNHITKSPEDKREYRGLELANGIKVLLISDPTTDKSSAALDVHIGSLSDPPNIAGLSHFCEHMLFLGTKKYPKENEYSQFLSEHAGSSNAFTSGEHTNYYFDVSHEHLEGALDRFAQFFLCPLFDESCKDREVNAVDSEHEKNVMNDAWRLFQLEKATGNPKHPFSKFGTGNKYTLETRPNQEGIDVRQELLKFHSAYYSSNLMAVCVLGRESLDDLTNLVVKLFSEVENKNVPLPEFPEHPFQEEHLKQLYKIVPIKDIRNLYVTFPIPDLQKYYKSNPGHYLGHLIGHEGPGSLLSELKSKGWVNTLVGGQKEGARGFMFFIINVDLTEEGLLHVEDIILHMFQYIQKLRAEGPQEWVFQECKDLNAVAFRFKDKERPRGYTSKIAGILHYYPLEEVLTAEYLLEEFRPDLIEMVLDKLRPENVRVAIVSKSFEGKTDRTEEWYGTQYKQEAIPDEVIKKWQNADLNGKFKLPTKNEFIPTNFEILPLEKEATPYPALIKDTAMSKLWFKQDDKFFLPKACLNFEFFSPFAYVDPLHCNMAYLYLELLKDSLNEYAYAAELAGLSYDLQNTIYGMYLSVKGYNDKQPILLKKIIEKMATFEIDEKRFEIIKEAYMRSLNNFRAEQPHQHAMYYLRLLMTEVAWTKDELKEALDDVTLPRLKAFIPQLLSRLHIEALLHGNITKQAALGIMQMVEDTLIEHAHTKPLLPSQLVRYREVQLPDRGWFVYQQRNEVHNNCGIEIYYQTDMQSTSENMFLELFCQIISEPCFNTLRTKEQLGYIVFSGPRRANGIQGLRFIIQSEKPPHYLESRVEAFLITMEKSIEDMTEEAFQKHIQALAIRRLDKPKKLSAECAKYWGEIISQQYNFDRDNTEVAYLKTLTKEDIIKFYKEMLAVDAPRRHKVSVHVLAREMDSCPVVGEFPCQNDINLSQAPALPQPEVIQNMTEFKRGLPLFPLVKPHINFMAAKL

[8] = viability loss in THP-1 monocytes – THP-1 cells, cytotoxicity control for Vif-APOBEC3G degradation inhibitor project, dose response (AID 1117359); assay type: functional; conditions: THP-1
[9] = target: Glutathione-S-transferase (Schistosoma japonicum, UniProt Q26513); experiment: GST-antibody interaction or FRET quenching – biochemical, TR-FRET, artefact control for Vif-APOBEC3G degradation inhibitor project, dose response (AID 1117362); assay type: functional
Chain of Glutathione-S-transferase (Q26513 whole entry): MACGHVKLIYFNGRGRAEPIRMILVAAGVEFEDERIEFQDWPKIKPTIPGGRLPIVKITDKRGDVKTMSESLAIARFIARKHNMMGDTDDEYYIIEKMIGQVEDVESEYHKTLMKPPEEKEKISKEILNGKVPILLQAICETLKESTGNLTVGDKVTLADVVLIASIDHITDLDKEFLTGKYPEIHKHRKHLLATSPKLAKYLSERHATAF

HEK293 [10] = experiment: optical interference in Abeta FP readout, dose response, artefact control for IDE activator project, biochemical, fluorescence polarization (AID 588442); assay type: functional, cell-based; conditions: Homo sapiens
[11] = target: Intestinal-type alkaline phosphatase (Homo sapiens, UniProt P09923); experiment: Dose Response confirmation of uHTS hits from a small molecule inhibitors of human intestinal alkaline phosphatase via a luminescent assay. [Related pubchem assays (depositor defined):AID2544, AID2574]; assay type: functional
Chain of Intestinal-type alkaline phosphatase (P09923 whole entry): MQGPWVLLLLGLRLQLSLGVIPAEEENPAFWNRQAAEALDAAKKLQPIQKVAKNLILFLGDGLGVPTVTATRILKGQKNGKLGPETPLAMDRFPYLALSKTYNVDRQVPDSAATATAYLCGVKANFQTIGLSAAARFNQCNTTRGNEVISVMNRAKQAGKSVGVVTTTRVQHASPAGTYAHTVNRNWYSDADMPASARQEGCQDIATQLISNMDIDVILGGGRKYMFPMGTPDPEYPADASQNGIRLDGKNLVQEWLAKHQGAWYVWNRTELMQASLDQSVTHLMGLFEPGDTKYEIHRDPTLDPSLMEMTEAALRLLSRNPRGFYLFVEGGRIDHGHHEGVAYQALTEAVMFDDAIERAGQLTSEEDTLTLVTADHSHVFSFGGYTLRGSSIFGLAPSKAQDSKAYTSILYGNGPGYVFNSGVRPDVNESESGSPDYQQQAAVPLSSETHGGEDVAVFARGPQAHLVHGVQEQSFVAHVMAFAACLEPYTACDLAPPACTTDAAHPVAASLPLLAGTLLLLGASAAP

Insulin-degrading enzyme [12] = target: T1, Insulin-degrading enzyme; experiment: recombinant IDE activation, cell-free – biochemical, fluorescence polarization, counter-screen for IDE activator project, dose response (AID 588681)
HeLa = experiment: viability loss in HeLa cells – cell-based, 24 h, cherry-picked samples, cytotoxicity control, dose response (AID 504726); assay type: functional; conditions: Homo sapiens;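 further: potency for cytotoxicity as loss of luminescence signal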
HEK293 [13] = experiment: membrane integrity loss in HEK cells – cell-based, fluorescence, cytotoxicity control for IDE activator project, dose response (AID 588440); assay type: functional; conditions: Homo sapiens;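 further: cytotoxicity by LDH release measuring loss of membrane integrity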
ORF 73 = ORF 73 (Human herpesvirus 8, UniProt O40947); experiment: KSHV LANA DNA-binding disruption – biochemical, fluorescence polarization, cherry-picked samples, dose response (AID 504725); set-up: species or system Human gammaherpesvirus 8;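 further: fluorescence polarization of a labeled DNA duplex reporting LANA DNA binding; potency is for inhibitors that block LANA binding to the DNA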
Chain of ORF 73 (O40947 whole entry): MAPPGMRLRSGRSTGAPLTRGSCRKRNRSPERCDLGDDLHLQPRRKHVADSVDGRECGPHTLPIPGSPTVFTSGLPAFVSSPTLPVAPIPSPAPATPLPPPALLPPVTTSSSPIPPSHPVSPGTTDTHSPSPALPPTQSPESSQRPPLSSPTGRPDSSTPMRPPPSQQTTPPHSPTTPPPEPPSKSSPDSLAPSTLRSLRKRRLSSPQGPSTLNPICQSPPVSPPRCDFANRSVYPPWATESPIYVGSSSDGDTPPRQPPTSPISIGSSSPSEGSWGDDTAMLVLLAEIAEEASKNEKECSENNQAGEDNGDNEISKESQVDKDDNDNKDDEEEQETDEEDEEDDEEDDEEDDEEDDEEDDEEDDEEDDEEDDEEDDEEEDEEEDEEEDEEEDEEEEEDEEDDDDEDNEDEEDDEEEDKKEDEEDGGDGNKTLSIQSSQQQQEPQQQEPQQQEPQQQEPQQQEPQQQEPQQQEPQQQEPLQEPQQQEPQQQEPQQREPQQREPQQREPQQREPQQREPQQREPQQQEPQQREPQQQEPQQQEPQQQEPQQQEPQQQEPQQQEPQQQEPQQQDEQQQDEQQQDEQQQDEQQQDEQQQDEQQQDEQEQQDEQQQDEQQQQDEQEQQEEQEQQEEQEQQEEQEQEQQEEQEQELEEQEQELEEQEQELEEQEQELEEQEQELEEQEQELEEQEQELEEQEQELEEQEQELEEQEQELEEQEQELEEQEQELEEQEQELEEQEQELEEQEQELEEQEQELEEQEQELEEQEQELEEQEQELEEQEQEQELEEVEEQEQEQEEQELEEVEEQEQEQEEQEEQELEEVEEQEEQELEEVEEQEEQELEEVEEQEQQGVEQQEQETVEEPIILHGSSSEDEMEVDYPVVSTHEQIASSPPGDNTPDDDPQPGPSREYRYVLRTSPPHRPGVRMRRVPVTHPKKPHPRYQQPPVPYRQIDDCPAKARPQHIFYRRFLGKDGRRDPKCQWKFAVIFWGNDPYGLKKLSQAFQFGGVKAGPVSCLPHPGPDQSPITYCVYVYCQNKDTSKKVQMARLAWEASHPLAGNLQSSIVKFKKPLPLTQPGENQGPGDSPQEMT

[14] = target: T2, Dual specificity protein phosphatase 3 (Homo sapiens, UniProt P51452); experiment: SAR VHR1 Fluorescent Assay for In Vitro dose response studies. [Related pubchem assays (depositor defined):AID1654, AID1661, AID1878, AID1992, AID2004, AID2070, AID2085]; assay type: functional
T2 sequence (P51452 whole entry): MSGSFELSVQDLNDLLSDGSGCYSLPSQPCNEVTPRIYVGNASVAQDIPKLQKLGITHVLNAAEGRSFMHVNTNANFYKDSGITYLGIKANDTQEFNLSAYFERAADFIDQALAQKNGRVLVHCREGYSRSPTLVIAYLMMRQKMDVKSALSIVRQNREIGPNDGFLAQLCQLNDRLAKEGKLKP

[15] = target: Glyceraldehyde-3-phosphate dehydrogenase (Homo sapiens, UniProt P04406)
Chain of Glyceraldehyde-3-phosphate dehydrogenase (P04406 whole entry): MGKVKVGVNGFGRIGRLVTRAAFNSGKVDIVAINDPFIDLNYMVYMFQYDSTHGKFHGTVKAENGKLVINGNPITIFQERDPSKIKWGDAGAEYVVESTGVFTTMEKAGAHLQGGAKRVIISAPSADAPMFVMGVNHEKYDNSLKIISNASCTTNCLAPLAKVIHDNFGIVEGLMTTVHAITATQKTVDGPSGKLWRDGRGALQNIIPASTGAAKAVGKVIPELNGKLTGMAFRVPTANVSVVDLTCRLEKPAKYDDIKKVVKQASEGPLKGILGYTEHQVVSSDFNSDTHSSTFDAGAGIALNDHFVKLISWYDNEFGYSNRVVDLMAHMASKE

[16] = target: T3, Dual specificity protein phosphatase 6 (Rattus norvegicus, UniProt Q64346)
T3 sequence (Q64346 whole entry): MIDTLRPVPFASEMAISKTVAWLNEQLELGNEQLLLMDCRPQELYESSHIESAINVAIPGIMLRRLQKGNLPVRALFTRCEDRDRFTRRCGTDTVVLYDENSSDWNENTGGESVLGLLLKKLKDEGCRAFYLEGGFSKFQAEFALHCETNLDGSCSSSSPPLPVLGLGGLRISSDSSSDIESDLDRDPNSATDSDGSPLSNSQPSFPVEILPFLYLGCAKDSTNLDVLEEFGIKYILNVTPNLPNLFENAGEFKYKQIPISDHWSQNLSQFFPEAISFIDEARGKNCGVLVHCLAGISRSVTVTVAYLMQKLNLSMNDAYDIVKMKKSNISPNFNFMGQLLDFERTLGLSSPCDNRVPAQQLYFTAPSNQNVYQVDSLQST

[17] = target: T4, Tyrosine-protein phosphatase non-receptor type 7 (Homo sapiens, UniProt P35236); experiment: redox-active compounds inhibiting HePTP phosphatase – biochemical, fluorescence, mechanism study (AID 2068); assay type: functional
T4 sequence (P35236 whole entry): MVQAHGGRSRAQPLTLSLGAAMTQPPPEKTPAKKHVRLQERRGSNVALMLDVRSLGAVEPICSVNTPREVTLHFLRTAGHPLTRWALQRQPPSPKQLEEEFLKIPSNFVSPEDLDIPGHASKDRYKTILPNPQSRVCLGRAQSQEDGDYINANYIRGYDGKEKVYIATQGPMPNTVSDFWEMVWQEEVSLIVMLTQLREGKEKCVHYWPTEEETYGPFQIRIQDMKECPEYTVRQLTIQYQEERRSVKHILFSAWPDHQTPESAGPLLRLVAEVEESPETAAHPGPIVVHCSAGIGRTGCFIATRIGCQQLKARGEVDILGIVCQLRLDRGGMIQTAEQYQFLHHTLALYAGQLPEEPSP

[18] = target: T2, Dual specificity protein phosphatase 3; experiment: MOA VHR1 Fluorescent secondary assay for identification of redox-state modulating compounds. [Related pubchem assays (depositor defined):AID1654, AID1661, AID1878, AID1957]
[19] = target: T4, Tyrosine-protein phosphatase non-receptor type 7; assay type: functional
[20] = target: T3, Dual specificity protein phosphatase 6; assay type: functional
[21] = target: T5, Rac GTPase-activating protein 1 (Homo sapiens, UniProt Q9H0H5); experiment: blockers of MgcRacGAP-driven Rac1 GTP hydrolysis – biochemical, ADP Hunter fluorescence, primary and confirmatory, confirmation (AID 624330); assay type: functional
T5 sequence (Q9H0H5 whole entry): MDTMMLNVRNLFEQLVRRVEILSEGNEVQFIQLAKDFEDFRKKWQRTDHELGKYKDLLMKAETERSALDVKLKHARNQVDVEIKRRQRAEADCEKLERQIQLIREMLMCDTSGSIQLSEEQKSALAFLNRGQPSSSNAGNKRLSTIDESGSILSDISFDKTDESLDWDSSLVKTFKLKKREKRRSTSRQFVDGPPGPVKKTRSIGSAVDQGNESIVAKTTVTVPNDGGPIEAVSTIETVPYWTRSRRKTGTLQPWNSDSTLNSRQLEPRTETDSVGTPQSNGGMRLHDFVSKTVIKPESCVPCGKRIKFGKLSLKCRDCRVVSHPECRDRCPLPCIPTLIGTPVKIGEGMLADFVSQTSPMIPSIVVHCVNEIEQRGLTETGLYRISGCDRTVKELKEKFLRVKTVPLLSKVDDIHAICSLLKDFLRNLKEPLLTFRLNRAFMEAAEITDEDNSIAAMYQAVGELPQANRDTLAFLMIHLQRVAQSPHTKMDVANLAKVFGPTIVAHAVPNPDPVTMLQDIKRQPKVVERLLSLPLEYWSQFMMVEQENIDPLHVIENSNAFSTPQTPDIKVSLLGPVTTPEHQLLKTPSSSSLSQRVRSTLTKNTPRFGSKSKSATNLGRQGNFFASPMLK

[22] = target: T6, DNA repair protein RAD52 homolog (Homo sapiens, UniProt P43351); assay type: functional, biochemical
T6 sequence (P43351 whole entry): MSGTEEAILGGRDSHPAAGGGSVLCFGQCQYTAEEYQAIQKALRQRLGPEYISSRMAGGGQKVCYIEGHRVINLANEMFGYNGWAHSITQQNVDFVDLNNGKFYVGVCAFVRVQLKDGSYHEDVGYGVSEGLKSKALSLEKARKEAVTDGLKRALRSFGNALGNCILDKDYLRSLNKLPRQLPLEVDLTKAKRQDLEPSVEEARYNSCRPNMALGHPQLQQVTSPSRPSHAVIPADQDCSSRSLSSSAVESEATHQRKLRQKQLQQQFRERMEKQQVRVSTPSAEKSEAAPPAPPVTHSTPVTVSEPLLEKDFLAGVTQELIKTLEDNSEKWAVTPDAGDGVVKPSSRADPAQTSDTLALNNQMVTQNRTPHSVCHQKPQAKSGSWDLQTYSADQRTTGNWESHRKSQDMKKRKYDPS

[23] = protection from phage-mediated lysis, alamar blue read-out – E. coli UTI89, K1F phage, bacterial capsule biogenesis inhibitors (AID 488966); assay type: functional
[24] = viability loss in HeLa cells – cytotoxicity control for MgcRacGAP inhibitor project, dose response (AID 624300); assay type: functional

## COc1cc(C=NNC(=O)c2ccccc2O)ccc1OCC(=O)Nc1ccccc1
[1]
  IC50: 52.6 µM (active)
[2]
  IC50: 2.41 µM (active)

## O=S(=O)(Nc1nc2ccccc2nc1Nc1ccc(N2CCOCC2)cc1)c1cc(Cl)ccc1Cl
INS1
  AC50: 5.91 µM (active)
[3]
  IC50: > 99 µM (inactive)
[4]
  IC50: > 100 µM (active)
[5]
  AC50: 4.38 µM (active)

## COC(=O)c1ccccc1-c1c2ccc(=N)cc-2oc2cc(N)ccc12
Paired box protein Pax-8
  AC50: 1.41 µM (active)
[6]
  AC50: 3.6 µM (active)
Insulin-degrading enzyme [7]
  EC50: > 54.7 µM (inactive)
[8]
  CC50: 5.49 µM (active)
[9]
  IC50: 9.91 µM (active)
HEK293 [10]
  EC50: 45 nM (active)
[11]
  IC50: > 100 µM (inactive)
Insulin-degrading enzyme [12]
  EC50: > 54.7 µM (inactive)
HeLa
  AC50: 34 µM (active)
HEK293 [13]
  IC50: > 89.2 µM (inactive)
ORF 73
  AC50: < 15 nM (active)

## Cc1cc(C)c2nc3s/c(=C\c4ccc(-c5ccccc5C(=O)O)o4)c(=O)n3c2c1
[14]
  IC50: 5.82 µM (active)
[15]
  IC50: 87.1 µM (active)
[16]
  IC50: 13.8 µM (active)
[17]
  IC50: 805 nM (active)
[18]
  IC50: 680 nM (active)
[19]
  IC50: 2.4 µM (active)
[20]
  IC50: 15.6 µM (active)

## O=C1c2cccc(NCCNCCO)c2C(=O)c2cccc(NCCNCCO)c21
[21]
  IC50: 41.3 µM (active)
[22]
  AC50: < 150 nM (active)
[23]
  IC50: > 300 µM (active)
[24]
  CC50: 23.1 µM (active)
